The target of assay [1] is T1, human glucagon receptor (GCGR) (Homo sapiens, UniProt P47871).
T1 construct: expressed in transfected cells
Nature of the assay: cAMP assay, human GCGR cells. It is filed as cell-based. On the procedure:
(§1) Sample dilutions are made in duplicate.
(§2) A frozen cryo-vial of cells expressing the receptor of interest is thawed rapidly in a water-bath, transferred to pre-warmed assay buffer and spun at 240×g for 5 minutes. Cells are re-suspended in assay buffer at a batch-dependent optimized concentration (e.g. hGCGR cells at 2×10^5 cells/ml, hGLP-1R and hGIPR cells at 1×10^5 cells/ml).
(§3) To this, 5 μL cell suspension is added and the plates incubated at room temperature for 30 minutes.
(§4) cAMP levels are measured using a commercially available cAMP dynamic 2 HTRF kit (Cisbio, Cat #62AM4PEJ), following the two step protocol as per manufacturer's recommendations. In brief; anti-cAMP cryptate (donor fluorophore) and cAMP-d2 (acceptor fluorophore) are made up separately by diluting each 1/20 in conjugate & lysis buffer provided in the kit. 5 μL anti-cAMP cryptate is added to wells of the assay plate, and 5 μL cAMP-d2 is added to wells except non-specific binding (NSB) wells, to which conjugate and lysis buffer are added. […] EC50 values of the synthetic peptides determined in cAMP assays are then determined.
(§5) Data is transformed to % Delta F as described in the manufacturer's guidelines and analyzed by 4-parameter logistic fit to determine EC50 values. […] To compare the balance of activities at the GLP-1R and GCGR between different peptides and across different conditions, these can be correlated, where the EC50's are related to those of comparator peptides.
(In general: cAMP levels reflect the balance of adenylyl cyclase and phosphodiesterase activity.)

The target in assay [2] is T2, human glucose-dependent insulinotropic peptide receptor (GIPR) (Homo sapiens, UniProt P48546).
T2 construct: expressed in transfected cells
T2 sequence (P48546 22-466): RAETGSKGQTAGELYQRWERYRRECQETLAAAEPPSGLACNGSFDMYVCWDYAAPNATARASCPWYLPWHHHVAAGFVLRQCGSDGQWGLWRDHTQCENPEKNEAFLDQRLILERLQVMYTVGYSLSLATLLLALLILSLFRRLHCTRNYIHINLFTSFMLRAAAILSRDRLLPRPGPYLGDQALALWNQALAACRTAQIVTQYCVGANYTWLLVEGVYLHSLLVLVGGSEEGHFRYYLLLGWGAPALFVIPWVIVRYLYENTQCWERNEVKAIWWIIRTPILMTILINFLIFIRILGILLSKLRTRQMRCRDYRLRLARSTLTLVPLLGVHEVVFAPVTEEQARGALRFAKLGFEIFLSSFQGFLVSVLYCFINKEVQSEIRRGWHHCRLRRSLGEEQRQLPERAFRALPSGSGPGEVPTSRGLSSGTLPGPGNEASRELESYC
Nature of the assay: cAMP assay, human GIPR cells. The format is cell-based. On the procedure:
as §1, §2, §3, §4, §5

[3] abbreviates: cAMP assay, first determination (n1), read-out: Primary assay EC50 Gluc-R (n1).
[4] abbreviates: cAMP assay, second determination (n2), read-out: Primary assay EC50 Gluc-R (n2).
Setting [5] is: cAMP assay, first determination (n1), read-out: Primary assay EC50 GIP-R (n1).
The mark [6] stands for this setting: cAMP assay, second determination (n2), read-out: Primary assay EC50 GIP-R (n2).

Data on seven compounds can be found in US10414811B2, “Protease-resistant lipidated GLP-1 analogs” (MEDIMMUNE LIMITED, priority 2015, dated 2019).

Structures are written as SMILES. Read-outs that look alike come from different tables or passages of the source. Numbered stars: 1 amine (or outer) side, 2 acyl side, 3 side chain; on linkers, the order of the positions; unused ones are H or OH. Square brackets hold non-standard residues; d marks the D form. Side chains are listed from the residue outwards. Peptide text beside a SMILES is read from it. * marks the point of attachment. γGlu = O=C(O)[C@H](CCC(=O)[*:2])N[*:1]; αMeF = C[C@](N)(Cc1ccccc1)C(=O)O; αMeK = C[C@](N)(CCCCN)C(=O)O; Lauroyl = CCCCCCCCCCCC(=O)*; αMeS = C[C@](N)(CO)C(=O)O; AEEA = NCCOCCOCC(=O)O; Aib = CC(C)(N)C(=O)O A value given as a limit tells only on which side of the number the result lay.

T1 sequence (P47871 26-477): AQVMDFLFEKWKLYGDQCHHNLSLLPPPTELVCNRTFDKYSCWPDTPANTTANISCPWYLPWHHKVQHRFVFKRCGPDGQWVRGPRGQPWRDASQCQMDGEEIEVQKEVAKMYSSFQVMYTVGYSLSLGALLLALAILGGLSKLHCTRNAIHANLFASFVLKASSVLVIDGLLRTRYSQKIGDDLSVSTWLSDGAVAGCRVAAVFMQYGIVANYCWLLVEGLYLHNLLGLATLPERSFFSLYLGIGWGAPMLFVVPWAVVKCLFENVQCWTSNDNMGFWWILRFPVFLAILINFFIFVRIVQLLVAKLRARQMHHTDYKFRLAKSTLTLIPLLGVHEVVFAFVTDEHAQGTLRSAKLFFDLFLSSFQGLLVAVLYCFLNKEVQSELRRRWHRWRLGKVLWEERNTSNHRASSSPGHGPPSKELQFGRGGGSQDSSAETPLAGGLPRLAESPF

Consider `CCCCCCCCCCCC(=O)N[C@@H](CCC(=O)NCCOCCOCC(=O)NCCOCCOCC(=O)NCCCC[C@H](NC(=O)[C@H](CCC(=O)O)NC(=O)CNC(=O)[C@H](CCC(=O)O)NC(=O)[C@H](CC(C)C)NC(=O)[C@H](CCCCNC(=O)COCCOCCNC(=O)COCCOCCNC(=O)CC[C@H](NC(=O)CCCCCCCCCCC)C(=O)O)NC(=O)[C@H](CO)NC(=O)[C@](C)(CO)NC(=O)[C@@H](NC(=O)[C@H](CC(=O)O)NC(=O)[C@H](CO)NC(=O)[C@@H](NC(=O)[C@](C)(Cc1ccccc1)NC(=O)[C@H](CO)NC(=O)CNC(=O)[C@H](CCC(=O)O)NC(=O)C(C)(C)NC(=O)[C@@H](N)Cc1c[nH]cn1)[C@@H](C)O)C(C)C)C(=O)N[C@@H](C)C(=O)N[C@@](C)(CCCCN)C(=O)N[C@@H](CCC(=O)O)C(=O)N[C@@H](Cc1ccccc1)C(=O)N[C@H](C(=O)N[C@@H](C)C(=O)N[C@@H](Cc1ccccc1)C(=O)N[C@@H](CCCCNC(=O)COCCOCCNC(=O)COCCOCCNC(=O)CC[C@H](NC(=O)CCCCCCCCCCC)C(=O)O)C(=O)N[C@H](C(=O)N[C@@H](CCC(=O)O)C(=O)NCC(=O)NCC(N)=O)C(C)C)[C@@H](C)CC)C(=O)O` [compound 481] (H-H[Aib]EGS[αMeF]TSDV[αMeS]SK([AEEA-AEEA-γGlu-Lauroyl])LEGEK([AEEA-AEEA-γGlu-Lauroyl])A[αMeK]EFIAFK([AEEA-AEEA-γGlu-Lauroyl])VEGG-NH2; N-terminus assumed), for which the EC50 (commonly the midpoint of the concentration-response curve) in assay [1] (tris-lipidated peptides, second replicate, read-out: Primary assay EC50 Gluc-R (n2)) was 19.8 nM; in assay [2] (tris-lipidated peptides, first replicate, read-out: Primary assay EC50 GIP-R (n1)), 19.8 nM.
`CC[C@H](C)[C@H](NC(=O)[C@](C)(Cc1ccccc1)NC(=O)[C@H](CCC(=O)O)NC(=O)[C@](C)(CCCCN)NC(=O)[C@H](C)NC(=O)[C@H](C)NC(=O)[C@H](CCC(=O)O)NC(=O)CNC(=O)[C@H](CCC(=O)O)NC(=O)[C@H](CC(C)C)NC(=O)[C@](C)(Cc1ccccc1)NC(=O)[C@H](CO)NC(=O)[C@](C)(CO)NC(=O)[C@@H](NC(=O)[C@H](CC(=O)O)NC(=O)[C@@H](NC(=O)[C@@H](NC(=O)[C@](C)(Cc1ccccc1)NC(=O)[C@H](CO)NC(=O)CNC(=O)[C@H](CCC(=O)O)NC(=O)C(C)(C)NC(=O)[C@@H](N)Cc1c[nH]cn1)[C@@H](C)O)[C@@H](C)O)C(C)C)C(=O)N[C@@H](C)C(=O)N[C@@](C)(Cc1ccccc1)C(=O)N[C@H](C(=O)N[C@H](C(=O)N[C@@](C)(CCCCN)C(=O)NCC(=O)NCC(N)=O)C(C)C)C(C)C` [compound 29] (H-H[Aib]EGS[αMeF]TTDV[αMeS]S[αMeF]LEGEAA[αMeK]E[αMeF]IA[αMeF]VV[αMeK]GG-NH2): the EC50 in assay [1] (setting [3]), in assay [1] (setting [4]), in assay [2] (setting [5]) and in assay [2] (setting [6]) was at least 100 nM in each case.
On to `CC[C@H](C)[C@H](NC(=O)[C@H](Cc1ccccc1)NC(=O)[C@H](CCC(=O)O)NC(=O)[C@H](CCCCN)NC(=O)[C@H](C)NC(=O)[C@H](C)NC(=O)[C@H](CCC(N)=O)NC(=O)CNC(=O)[C@H](CCC(=O)O)NC(=O)[C@H](CC(C)C)NC(=O)[C@H](Cc1ccc(O)cc1)NC(=O)[C@H](CO)NC(=O)[C@](C)(CO)NC(=O)[C@@H](NC(=O)[C@H](CC(=O)O)NC(=O)[C@H](CO)NC(=O)[C@@H](NC(=O)[C@H](Cc1ccccc1)NC(=O)[C@@H](NC(=O)CNC(=O)[C@H](CCC(=O)O)NC(=O)C(C)(C)NC(=O)[C@@H](N)Cc1c[nH]cn1)[C@@H](C)O)[C@@H](C)O)C(C)C)C(=O)N[C@@H](C)C(=O)N[C@@H](Cc1c[nH]c2ccccc12)C(=O)N[C@@H](CC(C)C)C(=O)N[C@H](C(=O)N[C@@H](CCCCN)C(=O)NCC(=O)N[C@@H](CCCNC(=N)N)C(N)=O)C(C)C` [compound 21], for which the EC50 in assay [1] (setting [3]), in assay [1] (setting [4]), in assay [2] (setting [5]) and in assay [2] (setting [6]) was at least 340 nM each time.
As for `CC[C@H](C)[C@H](NC(=O)[C@H](Cc1ccccc1)NC(=O)[C@H](CCC(=O)O)NC(=O)[C@H](CCCCN)NC(=O)[C@H](C)NC(=O)[C@H](C)NC(=O)[C@H](CCC(N)=O)NC(=O)CNC(=O)[C@H](CCC(=O)O)NC(=O)[C@H](CC(C)C)NC(=O)[C@H](Cc1ccc(O)cc1)NC(=O)[C@H](CO)NC(=O)[C@H](CO)NC(=O)[C@@H](NC(=O)[C@H](CC(=O)O)NC(=O)[C@](C)(CO)NC(=O)[C@@H](NC(=O)[C@H](Cc1ccccc1)NC(=O)[C@@H](NC(=O)CNC(=O)[C@H](CCC(=O)O)NC(=O)C(C)(C)NC(=O)[C@@H](N)Cc1c[nH]cn1)[C@@H](C)O)[C@@H](C)O)C(C)C)C(=O)N[C@@H](C)C(=O)N[C@@H](Cc1c[nH]c2ccccc12)C(=O)N[C@@H](CC(C)C)C(=O)N[C@H](C(=O)N[C@@H](CCCCN)C(=O)NCC(=O)N[C@@H](CCCNC(=N)N)C(N)=O)C(C)C` [compound 19], the 50% effective concentration (EC50) in assay [1] (setting [3]), in assay [1] (setting [4]), in assay [2] (setting [5]) and in assay [2] (setting [6]) was at least 130 nM in each case.
As to `CC[C@H](C)[C@H](NC(=O)[C@](C)(Cc1ccccc1)NC(=O)[C@H](CCC(=O)O)NC(=O)[C@](C)(CCCCN)NC(=O)[C@H](C)NC(=O)[C@H](C)NC(=O)[C@H](CCC(=O)O)NC(=O)CNC(=O)[C@H](CCC(=O)O)NC(=O)[C@@H](NC(=O)[C@](C)(Cc1ccccc1)NC(=O)[C@H](CO)NC(=O)[C@H](CO)NC(=O)[C@@H](NC(=O)[C@H](CC(=O)O)NC(=O)[C@H](CO)NC(=O)[C@@H](NC(=O)[C@](C)(Cc1ccccc1)NC(=O)[C@H](CO)NC(=O)CNC(=O)[C@H](CCC(=O)O)NC(=O)C(C)(C)NC(=O)[C@@H](N)Cc1c[nH]cn1)[C@@H](C)O)C(C)C)C(C)C)C(=O)N[C@@H](C)C(=O)N[C@@](C)(Cc1ccccc1)C(=O)N[C@H](C(=O)N[C@H](C(=O)N[C@@](C)(CCCCN)C(=O)NCC(=O)NCC(N)=O)C(C)C)C(C)C` [compound 10] (H-H[Aib]EGS[αMeF]TSDVSS[αMeF]VEGEAA[αMeK]E[αMeF]IA[αMeF]VV[αMeK]GG-NH2; N-terminus assumed), the EC50 in assay [1] (setting [3]), in assay [1] (setting [4]), in assay [2] (setting [5]) and in assay [2] (setting [6]) was at least 100 nM in each case.
In the case of `CC[C@H](C)[C@H](NC(=O)[C@](C)(Cc1ccccc1)NC(=O)[C@H](CCC(=O)O)NC(=O)[C@H](CCCCNC(=O)CC[C@H](NC(=O)CC[C@H](NC(=O)CCCCCCCCCCCCCCCCC(=O)O)C(=O)O)C(=O)O)NC(=O)[C@H](C)NC(=O)[C@H](C)NC(=O)[C@H](CCC(=O)O)NC(=O)CNC(=O)[C@H](CCC(=O)O)NC(=O)[C@H](CC(C)C)NC(=O)[C@](C)(Cc1ccccc1)NC(=O)[C@H](CO)NC(=O)[C@](C)(CO)NC(=O)[C@@H](NC(=O)[C@H](CC(=O)O)NC(=O)[C@H](CO)NC(=O)[C@@H](NC(=O)[C@](C)(Cc1ccccc1)NC(=O)[C@H](CO)NC(=O)CNC(=O)[C@H](CCC(=O)O)NC(=O)C(C)(C)NC(=O)[C@@H](N)Cc1c[nH]cn1)[C@@H](C)O)C(C)C)C(=O)N[C@@H](C)C(=O)N[C@@](C)(Cc1ccccc1)C(=O)N[C@H](C(=O)N[C@H](C(=O)N[C@@](C)(CCCCN)C(=O)NCC(=O)NCC(N)=O)C(C)C)C(C)C` [compound 156], the 50% effective concentration (EC50) in assay [1] (setting [3]), in assay [1] (setting [4]), in assay [2] (setting [5]) and in assay [2] (setting [6]) was at least 27 nM each time.
As to `CC[C@H](C)[C@H](NC(=O)[C@](C)(Cc1ccccc1)NC(=O)[C@H](CCC(=O)O)NC(=O)[C@](C)(CCCCN)NC(=O)[C@H](C)NC(=O)[C@H](C)NC(=O)[C@H](CCC(=O)O)NC(=O)CNC(=O)[C@H](CCC(=O)O)NC(=O)[C@H](CC(C)C)NC(=O)[C@](C)(Cc1ccccc1)NC(=O)[C@H](CO)NC(=O)[C@](C)(CO)NC(=O)[C@@H](NC(=O)[C@H](CC(=O)O)NC(=O)[C@H](CCC(=O)O)NC(=O)[C@@H](NC(=O)[C@](C)(Cc1ccccc1)NC(=O)[C@H](CO)NC(=O)CNC(=O)[C@H](CCC(=O)O)NC(=O)C(C)(C)NC(=O)[C@@H](N)Cc1c[nH]cn1)[C@@H](C)O)C(C)C)C(=O)N[C@@H](C)C(=O)N[C@@](C)(Cc1ccccc1)C(=O)N[C@H](C(=O)N[C@H](C(=O)N[C@@](C)(CCCCN)C(=O)NCC(=O)NCC(N)=O)C(C)C)C(C)C` [compound 28] (H-H[Aib]EGS[αMeF]TEDV[αMeS]S[αMeF]LEGEAA[αMeK]E[αMeF]IA[αMeF]VV[αMeK]GG-NH2), the concentration giving a half-maximal response (EC50) in assay [1] (setting [3]), in assay [1] (setting [4]), in assay [2] (setting [5]) and in assay [2] (setting [6]) was at least 100 nM in each case.
